# pIC50: −log10 of the molar value.
# What was measured:
# HIS-TGFβR2 WT = HIS-TGFβR2 WT (Homo sapiens (Human), UniProt P37173); experiment: HTRF probe displacement assay, HIS-TGFβR2 WT; format: binding; conditions: 1 nM HIS-TGFβR2 WT, 1 hour at room temperature, read-out: TGFBR2WT IC50
# Procedure: (§1) Compounds were dissolved at 10 mM in dimethylsulfoxide (DMSO) and evaluated at eleven concentrations. IC50 values were derived by non-linear regression analysis.
# HIS-TGFβR1 T204D = HIS-TGFβR1 T204D (Homo sapiens (Human), UniProt P36897, T204D); experiment: HTRF probe displacement assay, HIS-TGFβR1 T204D; format: binding; conditions: 1 nM HIS-TGFβR1 T204D, 1 hour at room temperature, read-out: TGFBR1T204D IC50
# Chain of HIS-TGFβR1 T204D (P36897 34-503 T204D): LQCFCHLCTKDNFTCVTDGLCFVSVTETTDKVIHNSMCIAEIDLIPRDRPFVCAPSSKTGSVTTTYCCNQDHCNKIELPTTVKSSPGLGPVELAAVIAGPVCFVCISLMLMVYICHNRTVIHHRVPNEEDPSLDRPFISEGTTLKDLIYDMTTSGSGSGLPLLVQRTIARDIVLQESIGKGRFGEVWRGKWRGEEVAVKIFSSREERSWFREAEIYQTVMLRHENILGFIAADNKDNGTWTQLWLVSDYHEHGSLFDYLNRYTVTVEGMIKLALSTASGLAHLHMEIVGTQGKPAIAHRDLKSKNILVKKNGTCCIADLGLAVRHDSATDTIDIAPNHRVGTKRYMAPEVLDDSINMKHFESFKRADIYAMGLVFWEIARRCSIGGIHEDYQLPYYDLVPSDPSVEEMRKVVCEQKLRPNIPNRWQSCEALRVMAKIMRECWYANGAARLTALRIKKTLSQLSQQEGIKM
# Procedure: as §1
# Chain of HIS-TGFβR2 WT (P37173 23-567): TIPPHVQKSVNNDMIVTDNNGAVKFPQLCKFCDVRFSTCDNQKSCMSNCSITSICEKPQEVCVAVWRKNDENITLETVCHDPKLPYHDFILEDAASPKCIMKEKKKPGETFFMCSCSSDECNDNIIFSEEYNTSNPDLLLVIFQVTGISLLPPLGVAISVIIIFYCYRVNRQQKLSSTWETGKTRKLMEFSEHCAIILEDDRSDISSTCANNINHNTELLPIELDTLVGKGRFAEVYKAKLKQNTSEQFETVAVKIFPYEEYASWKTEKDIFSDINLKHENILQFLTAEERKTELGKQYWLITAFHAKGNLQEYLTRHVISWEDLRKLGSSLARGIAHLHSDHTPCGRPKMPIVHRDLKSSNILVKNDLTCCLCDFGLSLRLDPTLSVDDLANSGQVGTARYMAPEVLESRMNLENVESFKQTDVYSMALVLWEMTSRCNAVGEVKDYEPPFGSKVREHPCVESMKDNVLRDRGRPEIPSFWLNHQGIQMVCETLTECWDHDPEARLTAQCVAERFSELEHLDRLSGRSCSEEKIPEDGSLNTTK
Structure (SMILES),pIC50 (HIS-TGFβR2 WT),pIC50 (HIS-TGFβR1 T204D)
"Nc1ncnc2ccc(-c3cccnc3-c3cccc(C(F)F)n3)nc12 [Compound 105, 6-(6′-(difluoromethyl)-[2,2′-bipyridin]-3-yl)pyrido[3,2-d]pyrimidin-4-amine]",< 4.82,8.52
"Nc1ncnc2ccc(-c3cccnc3-c3cccc(C4CC4)n3)nc12 [Compound 106, 6-(6′-cyclopropyl-[2,2′-bipyridin]-3-yl)pyrido[3,2-d]pyrimidin-4-amine]",< 4.82,8.40
"CCc1cccc(-c2ncccc2-c2ccc3ncnc(N)c3c2)n1 [Compound 107, 6-(6′-ethyl-[2,2′-bipyridin]-3-yl)quinazolin-4-amine]",< 4.82,8.05
"CC(C)c1cccc(-c2ncccc2-c2ccc3ncnc(N)c3c2)n1 [Compound 108, 6-(6′-isopropyl-[2,2′-bipyridin]-3-yl)quinazolin-4-amine]",< 4.82,6.76
"Nc1ncnc2ccc(-c3cccnc3-c3cccc(C(F)F)n3)cc12 [Compound 109, 6-(6′-(difluoromethyl)-[2,2′-bipyridin]-3-yl)quinazolin-4-amine]",< 4.82,8.70
Cc1nc(-c2ncccc2-c2ccc3ncnc(N)c3c2)ccc1F [Compound 110],< 4.82,8.70
Nc1ncnc2ccc(-c3cccnc3-c3cccc(C4CC4)n3)cc12 [Compound 111],< 4.82,8.70
"Cc1nc(-c2ncccc2-c2ccc3nccnc3c2)ccc1F [Compound 112, 6-(5′-fluoro-6′-methyl-[2,2′-bipyridin]-3-yl)quinoxaline]",< 4.82,7.92

# Second part, the molecule after the results:
pIC50 (HIS-TGFβR2 WT),pIC50 (HIS-TGFβR1 T204D),Structure (SMILES)
< 4.82,4.82,"Cc1cccc(-c2nccc(C(F)F)c2-c2ccc3ncc(C#N)n3c2)n1 [Compound 93, 6-(4-(difluoromethyl)-6′-methyl-[2,2′-bipyridin]-3-yl)imidazo[1,2-a]pyridine-3-carbonitrile]"
< 4.82,4.82,"Cc1cccc(-c2nccc(C(F)F)c2-c2ccc3ncc(C(N)=O)n3c2)n1 [Compound 94, 6-(4-(difluoromethyl)-6′-methyl-[2,2′-bipyridin]-3-yl)imidazo[1,2-a]pyridine-3-carboxamide]"
< 4.82,6.45,"CC(=O)Nc1ccc(-c2ccc3ncc(C(N)=O)n3c2)c(-c2cccc(C)n2)n1 [Compound 95, 6-(6-acetamido-6′-methyl-[2,2′-bipyridin]-3-yl)imidazo[1,2-a]pyridine-3-carboxamide]"
< 4.82,7.37,"CC(=O)Nc1cnc(-c2cccc(C)n2)c(-c2ccc3ncc(C#N)n3c2)c1 [Compound 96, N-(3-(3-cyanoimidazo[1,2-a]pyridin-6-yl)-6′-methyl-[2,2′-bipyridin]-5-yl)acetamide]"
< 4.82,4.95,"CC(=O)Nc1ccnc(-c2cccc(C)n2)c1-c1ccc2ncc(C#N)n2c1 [Compound 100, N-(3-(3-cyanoimidazo[1,2-a]pyridin-6-yl)-6′-methyl-[2,2′-bipyridin]-4-yl)acetamide]"
< 4.82,8.30,"Cc1cccc(-c2nccc(N)c2-c2ccc3ncc(C(N)=O)n3c2)n1 [Compound 101, 6-(4-amino-6′-methyl-[2,2′-bipyridin]-3-yl)imidazo[1,2-a]pyridine-3-carboxamide]"
< 4.82,6.15,"CC(=O)Nc1ccnc(-c2cccc(C)n2)c1-c1ccc2ncc(C(N)=O)n2c1 [Compound 102, 6-(4-acetamido-6′-methyl-[2,2′-bipyridin]-3-yl)imidazo[1,2-a]pyridine-3-carboxamide]"
< 4.82,8.40,"Cc1nc(-c2ncccc2-c2ccc3ncnc(N)c3n2)ccc1F [Compound 103, 6-(5′-fluoro-6′-methyl-[2,2′-bipyridin]-3-yl)pyrido[3,2-d]pyrimidin-4-amine]"
< 4.82,7.38,"Nc1ncnc2ccc(-c3cccnc3-c3ccc(F)cn3)nc12 [Compound 104, 6-(5′-fluoro-[2,2′-bipyridin]-3-yl)pyrido[3,2-d]pyrimidin-4-amine]"

# Source: US9981944B2, “GDF-8 inhibitors” (Rigel Pharmaceuticals, Inc., priority 2015, dated 2018)
